Experimental data taken from US5192747A, “Anticoagulant peptides” (Merrell Dow Pharmaceuticals Inc., priority 1991, dated 1993).
Starred links: 1 amine or outer side, 2 acyl side, 3 side chain; linkers in the order of their positions; H or OH if unused. Non-standard residues stand in square brackets, D forms with d. Residues, ends and D or L forms follow the SMILES beside them. Cha = N[C@@H](CC1CCCCC1)C(=O)O; Suc = O=C(CCC(=O)[*:2])[*:1]

What follows are compounds tested against Bovine thrombin (Bos taurus, UniProt P00735) (assay: thrombin induced fibrin clot inhibition assay).
Type: biochemical
Protocol: Samples were tested in a thrombin induced fibrin clot inhibition assay. All the solutions of the assay were made with an assay buffer containing 0.12M sodium chloride, 0.01M sodium phosphate, 0.01% sodium azide and 0.1% bovine serum albumin, pH 7.4. […] This solution of thrombin (50 ul; 0.2 pmol) was added to the wells of a microtiter plate containing 50 ul of a solution of the synthetic peptide being tested. […] The turbidity of the solution was monitored by the autoreader at 5 min intervals. […] This is equivalent to a twofold increase in fibrin clot formation time. For the assays using human thrombin,, it and bovine thrombin were titrated to concentrations which gave the fibrin clot at the same rate over a 30 min period.
`CC[C@H](C)[C@H](NC(=O)[C@@H]1CCCN1C(=O)[C@H](CCC(=O)O)NC(=O)[C@H](Cc1ccc(O)cc1)NC(=O)CCC(=O)O)C(=O)N1CCC[C@H]1C(=O)N[C@@H](CCC(=O)O)C(=O)N[C@@H](CCC(=O)O)C(=O)N[C@@H](CC1CCCCC1)C(=O)N[C@@H](CCC(N)=O)C(N)=O` [compound 5, Suc--Tyr--Glu--Pro--Ile-- Pro--Glu--Glu--Cha--Gln--NH2] (Suc-YEPIPEE[Cha]Q-NH2) showed an IC50 of less than 25 µM. With `CC[C@H](C)[C@H](NC(=O)[C@@H]1CCCN1C(=O)[C@H](CCC(=O)O)NC(=O)[C@H](Cc1ccc(O)cc1)NC(=O)CCC(=O)O)C(=O)N1CCC[C@H]1C(=O)N[C@@H](CCC(=O)O)C(=O)N[C@@H](CCC(=O)O)C(=O)N[C@@H](CC1CCCCC1)C(=O)N[C@H](CCC(=O)O)C(=O)O` [compound 15, Suc--Tyr--Glu--Pro--Ile--Pro--Glu--Glu--Cha--D-Glu--OH] the IC50 was less than 25 µM. `CC[C@H](C)[C@H](NC(=O)[C@@H]1CCCN1C(=O)[C@H](CCC(=O)O)NC(=O)[C@H](Cc1ccc(O)cc1)NC(=O)CCC(=O)O)C(=O)N1CCC[C@H]1C(=O)N[C@@H](CCC(=O)O)C(=O)N[C@@H](CCC(=O)O)C(=O)N[C@@H](C)C(=O)N[C@@H](CC1CCCCC1)C(=O)O` [compound 18, Suc--Tyr--Glu--Pro--Ile--Pro--Glu--Glu--Ala--Cha--OH] gave an IC50 of less than 25 µM.
